The results in this text go back to US12447153B2, “HER2 mutation inhibitors” (Array BioPharma Inc., priority 2021, dated 2025).

Molecules are shown by their SMILES.

One series addresses ErbB2 WT (Homo sapiens (Human), UniProt P04626). The experiment in a line: ErbB Enzyme Assay (HTRF KinEASE-TK), Assay 2. Type of series: biochemical.
In a further series the target is EGFR (Homo sapiens (Human), UniProt P00533). The series can be described thus: ErbB Enzyme Assay (HTRF KinEASE-TK), Assay 3. Type of series: biochemical.
Chain of EGFR (P00533 25-1210): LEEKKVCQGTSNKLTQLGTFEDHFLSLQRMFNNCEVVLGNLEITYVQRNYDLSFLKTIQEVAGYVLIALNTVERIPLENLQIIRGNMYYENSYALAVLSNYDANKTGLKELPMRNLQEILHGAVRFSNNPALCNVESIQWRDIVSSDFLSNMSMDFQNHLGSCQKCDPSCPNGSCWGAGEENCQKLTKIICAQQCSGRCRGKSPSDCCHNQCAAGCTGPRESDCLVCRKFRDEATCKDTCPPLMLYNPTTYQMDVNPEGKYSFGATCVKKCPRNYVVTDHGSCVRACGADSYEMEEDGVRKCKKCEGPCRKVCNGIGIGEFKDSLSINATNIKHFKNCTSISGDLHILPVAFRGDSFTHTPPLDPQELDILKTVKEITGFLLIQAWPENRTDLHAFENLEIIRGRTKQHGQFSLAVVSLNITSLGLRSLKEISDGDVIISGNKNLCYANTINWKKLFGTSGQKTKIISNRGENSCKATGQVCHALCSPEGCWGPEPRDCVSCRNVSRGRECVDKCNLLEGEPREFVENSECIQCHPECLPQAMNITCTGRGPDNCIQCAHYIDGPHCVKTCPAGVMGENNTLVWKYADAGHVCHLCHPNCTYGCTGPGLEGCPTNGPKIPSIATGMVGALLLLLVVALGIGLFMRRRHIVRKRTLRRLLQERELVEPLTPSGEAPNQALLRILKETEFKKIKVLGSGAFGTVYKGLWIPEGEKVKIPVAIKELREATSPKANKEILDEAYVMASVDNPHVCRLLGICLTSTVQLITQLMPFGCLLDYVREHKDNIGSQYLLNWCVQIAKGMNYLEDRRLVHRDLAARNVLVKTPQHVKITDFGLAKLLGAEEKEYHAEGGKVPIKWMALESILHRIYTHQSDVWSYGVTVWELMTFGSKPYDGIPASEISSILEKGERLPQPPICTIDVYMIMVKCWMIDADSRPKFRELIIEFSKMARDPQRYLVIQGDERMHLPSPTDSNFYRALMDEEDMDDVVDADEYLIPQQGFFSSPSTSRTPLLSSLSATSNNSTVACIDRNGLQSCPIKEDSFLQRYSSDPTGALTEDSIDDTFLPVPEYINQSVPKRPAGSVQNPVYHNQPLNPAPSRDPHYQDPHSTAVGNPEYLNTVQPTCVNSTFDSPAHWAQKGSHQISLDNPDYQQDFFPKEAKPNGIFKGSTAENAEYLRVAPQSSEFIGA
Series [1] concerns the target ErbB2 with Exon 20 YVMA insertion (HER2-YVMA) (Homo sapiens (Human), UniProt P04626, INS775YVMA). The series can be described thus: Cellular Phosphorylation Assay, Assay 4 (constitutive ErbB2 phosphorylation, NIH 3T3 cells). Type of series: cell-based.
The next series addresses EGFR wild type (EGFR WT) (Homo sapiens (Human), UniProt P00533). The experiment in a line: Cellular Phosphorylation Assay, Assay 5 (EGF-stimulated EGFR phosphorylation, NIH 3T3 cells). Type of series: cell-based.
Another series addresses BCRP (Homo sapiens (Human), UniProt Q9UNQ0). The experiment in a line: BCRP MDCKII efflux assay (Assay 7). Conditions: dog; efflux ratio Papp(B-A)/Papp(A-B), BCRP MDCKII cells; read-out: Assay 7 Pe Ratio. It counts as in vitro ADME. How it is done:
Assay conditions included with and without the BCRP-specific inhibitor, KO143, at a concentration of 0.3 μM to ascertain the contribution of BCRP to the efflux value of the test compound.
Final organic concentration in the assay was 1%.

For the next series, the target named is MDR1 (P-gp) (Homo sapiens (Human), UniProt P08183). The experiment in a line: in vitro. Conditions: pig, LLC-PK1.
Setting [2] is: EGF-stimulated EGFR WT phosphorylation.

Chain of ErbB2 with Exon 20 YVMA insertion (HER2-YVMA) (P04626 other isoform, or with tags, fused parts or gaps ins YVMA behind 775): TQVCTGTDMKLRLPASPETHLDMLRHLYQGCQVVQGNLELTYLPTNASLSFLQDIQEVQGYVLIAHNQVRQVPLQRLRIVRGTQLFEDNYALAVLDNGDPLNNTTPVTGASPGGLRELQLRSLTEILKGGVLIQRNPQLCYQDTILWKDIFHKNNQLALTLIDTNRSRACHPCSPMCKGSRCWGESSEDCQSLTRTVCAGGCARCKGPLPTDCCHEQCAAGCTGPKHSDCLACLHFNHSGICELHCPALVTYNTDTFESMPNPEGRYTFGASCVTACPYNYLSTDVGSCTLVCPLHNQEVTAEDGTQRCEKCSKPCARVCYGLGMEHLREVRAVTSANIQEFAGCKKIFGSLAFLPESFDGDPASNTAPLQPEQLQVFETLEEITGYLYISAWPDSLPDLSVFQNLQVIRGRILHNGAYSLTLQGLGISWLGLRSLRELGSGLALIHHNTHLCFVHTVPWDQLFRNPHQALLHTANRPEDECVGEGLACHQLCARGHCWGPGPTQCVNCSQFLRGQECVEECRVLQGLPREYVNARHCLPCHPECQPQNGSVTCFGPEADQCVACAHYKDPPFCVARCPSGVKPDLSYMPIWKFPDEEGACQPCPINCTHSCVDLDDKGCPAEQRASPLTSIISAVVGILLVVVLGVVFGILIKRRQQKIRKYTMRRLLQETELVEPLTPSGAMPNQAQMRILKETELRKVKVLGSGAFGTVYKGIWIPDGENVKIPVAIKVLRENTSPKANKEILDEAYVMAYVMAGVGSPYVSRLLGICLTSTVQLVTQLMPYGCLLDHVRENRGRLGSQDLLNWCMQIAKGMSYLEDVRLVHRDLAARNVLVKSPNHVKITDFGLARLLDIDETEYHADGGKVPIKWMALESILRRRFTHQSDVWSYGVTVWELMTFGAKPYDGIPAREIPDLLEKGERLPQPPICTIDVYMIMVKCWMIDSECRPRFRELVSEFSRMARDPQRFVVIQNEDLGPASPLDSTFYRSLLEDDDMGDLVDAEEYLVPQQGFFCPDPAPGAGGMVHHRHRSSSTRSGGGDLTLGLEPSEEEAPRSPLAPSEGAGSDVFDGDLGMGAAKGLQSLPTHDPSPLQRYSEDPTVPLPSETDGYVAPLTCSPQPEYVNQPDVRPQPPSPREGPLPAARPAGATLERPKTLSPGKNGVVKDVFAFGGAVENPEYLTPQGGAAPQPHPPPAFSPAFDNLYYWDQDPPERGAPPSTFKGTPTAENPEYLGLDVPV
Chain of EGFR wild type (EGFR WT) (P00533 25-1210): as the sequence (P00533 25-1210) above
Chain of BCRP (Q9UNQ0 whole entry): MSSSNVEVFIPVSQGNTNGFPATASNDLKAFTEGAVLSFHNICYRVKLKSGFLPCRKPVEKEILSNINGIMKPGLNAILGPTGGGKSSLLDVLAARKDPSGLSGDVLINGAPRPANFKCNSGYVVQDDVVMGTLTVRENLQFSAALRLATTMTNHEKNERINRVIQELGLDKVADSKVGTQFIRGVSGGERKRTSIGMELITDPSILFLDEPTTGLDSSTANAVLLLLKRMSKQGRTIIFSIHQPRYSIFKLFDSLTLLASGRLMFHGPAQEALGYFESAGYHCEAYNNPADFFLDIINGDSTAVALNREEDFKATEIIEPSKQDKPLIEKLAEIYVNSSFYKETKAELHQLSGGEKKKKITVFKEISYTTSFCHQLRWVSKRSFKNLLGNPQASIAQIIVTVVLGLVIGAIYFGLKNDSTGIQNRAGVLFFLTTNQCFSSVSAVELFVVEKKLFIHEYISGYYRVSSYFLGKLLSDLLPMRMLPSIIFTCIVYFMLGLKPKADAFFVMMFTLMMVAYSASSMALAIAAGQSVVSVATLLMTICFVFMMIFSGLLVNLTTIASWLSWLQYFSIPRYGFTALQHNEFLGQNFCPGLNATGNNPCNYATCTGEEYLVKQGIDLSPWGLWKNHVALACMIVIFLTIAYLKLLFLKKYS

As to `C=CC(=O)N1C[C@@H](c2ccc3ncnc(Nc4ccc(Oc5ccn6ncnc6c5)c(C)c4F)c3n2)C[C@@H]1C` (mixture of isomers) [Example 385], the IC50 on ErbB2 WT (ErbB2 WT enzyme assay) came out at 0.0283 µM; on EGFR (EGFR enzyme assay) it was 0.848 µM; in series [1] (cellular ErbB2 YVMA phosphorylation), 0.0294 µM; at EGFR wild type (EGFR WT) (cellular EGFR WT phosphorylation, EGF-stimulated), 1.95 µM. Besides, the efflux ratio at 2 h, 1 µM at BCRP was determined as 5; at MDR1 (P-gp), 1.3.

Take `C=CC(=O)N1C[C@H](c2ccc3ncnc(Nc4ccc(Oc5ccc6c(c5)ncn6C)c(C)c4F)c3n2)CCC1(C)C` (racemic) [Example 36, 1-(5-(4-((2-fluoro-3-methyl-4-((1-methyl-1H-benzo[d]imidazol-5-yl)oxy)phenyl)amino)pyrido[3,2-d]pyrimidin-6-yl)-2,2-dimethylpiperidin-1-yl)prop-2-en-1-one]: the IC50 at ErbB2 WT (ErbB2 WT enzyme) is 0.105 µM; against EGFR (EGFR enzyme) it was at least 10 µM; in series [1] (ErbB2 YVMA phosphorylation) it was 0.0189 µM; against EGFR wild type (EGFR WT) (setting [2]), 1.7 µM. In addition, the efflux ratio at 2 h, 1 µM came to 4.2 on BCRP and 0.8 on MDR1 (P-gp).

As to `C=CC(=O)N1CC[C@H]2C[C@@H](c3ccc4ncnc(Nc5cc(C)c(Oc6ccc7c(c6)ncn7C)cc5F)c4n3)C[C@H]21` (racemic) [Example 37, 1-(5-(4-((2-fluoro-5-methyl-4-((1-methyl-1H-benzo[d]imidazol-5-yl)oxy)phenyl)amino)pyrido[3,2-d]pyrimidin-6-yl)hexahydrocyclopenta[b]pyrrol-1(2H)-yl)prop-2-en-1-one], the half-inhibitory concentration (IC50) is 0.119 µM against ErbB2 WT (ErbB2 WT enzyme), at least 10 µM on EGFR (EGFR enzyme), 0.0203 µM in series [1] (ErbB2 YVMA phosphorylation) and at least 5 µM against EGFR wild type (EGFR WT) (setting [2]). Moreover, the efflux ratio at 2 h, 1 µM on BCRP was 1.8; on MDR1 (P-gp), 1.5.

For `C=CC(=O)N1CCC[C@@H](c2ccc3ncnc(Nc4cc(C)c(Oc5ccc6c(c5)ncn6C)cc4F)c3n2)C1` (racemic) [Example 129, rac-(R)-1-(3-(4-((2-fluoro-5-methyl-4-((1-methyl-1H-benzo[d]imidazol-5-yl)oxy)phenyl)amino)pyrido[3,2-d]pyrimidin-6-yl)piperidin-1-yl)prop-2-en-1-one], the IC50 against ErbB2 WT (ErbB2 WT enzyme) was 0.0659 µM; on EGFR (EGFR enzyme), 7.93 µM; in series [1] (ErbB2 YVMA phosphorylation), 0.0166 µM; against EGFR wild type (EGFR WT) (setting [2]), at least 5 µM. In addition, the efflux ratio at 2 h, 1 µM on BCRP and on MDR1 (P-gp) was 1.4 throughout.

As for `C=CC(=O)N1CC[C@H](c2ccc3ncnc(Nc4ccc(Oc5ccc6c(c5)ncn6C)c(C)c4F)c3n2)CC(C)(C)C1` (racemic) [Example 140, rac-(R)-1-(5-(4-((2-fluoro-3-methyl-4-((1-methyl-1H-benzo[d]imidazol-5-yl)oxy)phenyl)amino)pyrido[3,2-d]pyrimidin-6-yl)-3,3-dimethylazepan-1-yl)prop-2-en-1-one], the IC50 on ErbB2 WT (ErbB2 WT enzyme) was 0.225 µM; at EGFR (EGFR enzyme), at least 10 µM; in series [1] (ErbB2 YVMA phosphorylation) it was 0.0311 µM; against EGFR wild type (EGFR WT) (setting [2]) it was at least 5 µM. Further, the results for the efflux ratio at 2 h, 1 µM on BCRP and on MDR1 (P-gp) were 1.9 and 1.2, respectively.

With `C=CC(=O)N1[C@@H]2CC[C@H]1CC(c1ccc3ncnc(Nc4ccc(Oc5ccc6c(c5)ncn6C)c(C)c4F)c3n1)C2` (mixture of isomers) [Example 143, rac-1-((1R,5S)-3-(4-((2-fluoro-3-methyl-4-((1-methyl-1H-benzo[d]imidazol-5-yl)oxy)phenyl)amino)pyrido[3,2-d]pyrimidin-6-yl)-8-azabicyclo[3.2.1]octan-8-yl)prop-2-en-1-one], the IC50 against ErbB2 WT (ErbB2 WT enzyme) came out at 0.0327 µM; at EGFR (EGFR enzyme) it was 1.85 µM; in series [1] (ErbB2 YVMA phosphorylation), 0.0209 µM; at EGFR wild type (EGFR WT) (setting [2]), 2.94 µM. Further, the efflux ratio at 2 h, 1 µM at BCRP was 3; at MDR1 (P-gp), 1.7.

`C=CC(=O)N1CCCC[C@@H](c2ccc3ncnc(Nc4ccc(Oc5ccc6c(c5)ncn6C)c(C)c4F)c3n2)C1` (racemic) [Example 145, rac-(R)-1-(3-(4-((2-fluoro-3-methyl-4-((1-methyl-1H-benzo[d]imidazol-5-yl)oxy)phenyl)amino)pyrido[3,2-d]pyrimidin-6-yl)azepan-1-yl)prop-2-en-1-one]: the concentration for half-maximal inhibition (IC50) on ErbB2 WT (ErbB2 WT enzyme) was 0.0059 µM; at EGFR (EGFR enzyme), 0.41 µM; in series [1] (ErbB2 YVMA phosphorylation) it was 0.0153 µM; at EGFR wild type (EGFR WT) (setting [2]) it was 0.582 µM. The efflux ratio at 2 h, 1 µM at BCRP was 1.4; at MDR1 (P-gp) it was 6.4.

On to `C=CC(=O)N1CCC[C@@H](c2ccc3ncnc(Nc4ccc(Oc5ccc6c(c5)ncn6C)c(C)c4F)c3n2)CC1` (racemic) [Example 147, rac-(R)-1-(4-(4-((2-fluoro-3-methy-4-((1-methyl-1H-benzo[d]imidazol-5-yl)oxy)phenyl)amino)pyrido[3,2-d]pyrimidin-6-yl)azepan-1-yl)prop-2-en-1-one], for which the IC50 against ErbB2 WT (ErbB2 WT enzyme) amounted to 0.0186 µM; on EGFR (EGFR enzyme) it was 0.782 µM; in series [1] (ErbB2 YVMA phosphorylation), 0.023 µM; against EGFR wild type (EGFR WT) (setting [2]), 2.59 µM. For the same compound, the efflux ratio at 2 h, 1 µM on BCRP stood at 2.3; on MDR1 (P-gp) it was 2.9.

For `C=CC(=O)N1C[C@@H]2C[C@H]1C[C@H]2c1ccc2ncnc(Nc3ccc(Oc4ccn5ncnc5c4)c(C)c3F)c2n1` (racemic) [Example 199, rac-1-((1 S,4R,5R)-5-(4-((4-([1,2,4]triazolo[1,5-a]pyridin-7-yloxy)-2-fluoro-3-methylphenyl)amino)pyrido[3,2-d]pyrimidin-6-yl)-2-azabicyclo[2.2.1]heptan-2-yl)prop-2-en-1-one], the half-maximal inhibitory concentration (IC50) is 0.0174 µM on ErbB2 WT (ErbB2 WT enzyme), 0.483 µM against EGFR (EGFR enzyme), 0.0223 µM in series [1] (ErbB2 YVMA phosphorylation) and 0.942 µM against EGFR wild type (EGFR WT) (setting [2]). Besides, the efflux ratio at 2 h, 1 µM at BCRP stood at 3.2; at MDR1 (P-gp), 0.6.

Regarding `C=CC(=O)N1C[C@H]2C[C@@H]1[C@H](c1ccc3ncnc(Nc4ccc(Oc5ccc6c(c5)ncn6C)c(C)c4F)c3n1)C2` (racemic) [Example 202, rac-1-((1R,4R,6R)-6-(4-((2-fluoro-3-methyl-4-((1-methyl-1H-benzo[d]imidazol-5-yl)oxy)phenyl)amino)pyrido[3,2-d]pyrimidin-6-yl)-2-azabicyclo[2.2.1]heptan-2-yl)prop-2-en-1-one], the concentration for half-maximal inhibition (IC50) against ErbB2 WT (ErbB2 WT enzyme) was found to be 0.0155 µM; against EGFR (EGFR enzyme) it was 0.55 µM; in series [1] (ErbB2 YVMA phosphorylation), 0.0206 µM; against EGFR wild type (EGFR WT) (setting [2]), 4.22 µM. Further, the efflux ratio at 2 h, 1 µM at BCRP stood at 2.8; at MDR1 (P-gp), 1.2.

Take `C=CC(=O)N1CCC(Oc2ccc3ncnc(Nc4ccc(Oc5cc6nn(C)cc6cn5)c(C)c4)c3n2)CC1` [Example 52, 1-(4-((4-((3-methyl-4-((2-methyl-2H-pyrazolo[4,3-c]pyridin-6-yl)oxy)phenyl)amino)pyrido[3,2-d]pyrimidin-6-yl)oxy)piperidin-1-yl)prop-2-en-1-one]: the half-inhibitory concentration (IC50) against ErbB2 WT (ErbB2 WT enzyme) was 0.395 µM; at EGFR (EGFR enzyme) it was at least 10 µM; in series [1] (ErbB2 YVMA phosphorylation), 0.0347 µM; at EGFR wild type (EGFR WT) (setting [2]), at least 5 µM. In addition, the efflux ratio at 2 h, 1 µM at MDR1 (P-gp) came out at 34.5.

`C=CC(=O)N1C[C@@H](c2ccc3ncnc(Nc4cc(C)c(Oc5ccc6c(c5)ncn6C)cc4F)c3n2)C[C@@H]1C` [Example 190, 1-((2S,4S)-4-(4-((2-fluoro-5-methyl-4-((1-methyl-1H-benzo[d]imidazol-5-yl)oxy)phenyl)amino)pyrido[3,2-d]pyrimidin-6-yl)-2-methylpyrrolidin-1-yl)prop-2-en-1-one]: the concentration for half-maximal inhibition (IC50) on ErbB2 WT (ErbB2 WT enzyme) was 0.0411 µM; against EGFR (EGFR enzyme), 3.8 µM; in series [1] (ErbB2 YVMA phosphorylation) it was 0.016 µM; against EGFR wild type (EGFR WT) (setting [2]), at least 5 µM. The efflux ratio at 2 h, 1 µM on MDR1 (P-gp) is 3.9.
